Source: patent publication US5834012A, “Lipid complexed topoisomerase I inhibitors” (Perez-Soler; Roman, priority 1995, dated 1998)
Values joined by “and” are separate entries in the source; they are usually repeats but may differ in a detail not shown here. Equal values may be shown once. “Also recorded” adds a separate entry of the source.

What was measured:
[1] = Solubility of CPT; format: physicochemical
From the text: Some lipophilic drugs such as taxol and taxotere can be solubilized by mild detergents, surfactants and alcohol- containing solutions; however, no similar vehicle has been identified for CPT lactone. […] Solutions containing chloroform and methanol can solubilize CPT, but are too toxic for clinically relevant studies.

[2] = it has been shown; cited from earlier work
[3] = system: MDA-Panc3 cells; experiment: MTT cytotoxicity, MDA-Panc3 cells; format: cell-based, human; settings: 24-120 h
Procedure: (§1) Cell Lines. MDA-Panc3 cells(pancreas carcinoma), DiFi cells (colon carcinoma), and KB cells (squamous carcinoma) were used for in vitro data.
(§2) Cytotoxicity Assay. 8,000 cells/well in 135 ul of Dubelco's MEM with 10% fetal bovine serum (FBS) was added to 96-well culture plates. The plates were incubated for 14 h at 37° in the presence of 5% CO2. 15 µL of CPT, liposomal CPT (L-CPT), and empty liposomes (ELs) with CPT were added in concentrations of […] CPT. Lipids were added to each sample (5-25:1 lipid:drug weight ratio). The cells were incubated in the presence of drug for 24 to 120 h. After […] of 5 mg/ml MTT in PBS was added to the samples, the cells were incubated at 37° for 2 h. 100 µL of lysis buffer (50 ml DMF, 20 gm SDS, to total volume 100 ml with water, adjusted to pH 4.7 with NaOH) was added to each well. Plates were incubated for 14h at 37°, then read at 570 nm in a kinetic microplate reader. A dose of 0.1 M blank lipid was used as a control for 100% survival.
(§3) LC-CPT consisting of 12.5:1 DO-NGPE:CPT was used for in vitro assays of cytotoxicity. Lethal cellular injury induced by CPT requires prolonged exposure, cytotoxicity of L-CPT and controls were determined at 24, 72, and 120 hr intervals of continuous drug exposure.

[4] = system: P388 leukemia; experiment: Survival of mice inoculated IP with P388 leukemia; format: in vivo, mouse (B6D2Fl); settings: for long-term survivors, percent: FIG. 5b; for % T/C: 24 h after inoculation
[5] = system: L1210 leukemia; experiment: Survival of mice inoculated IP with L1210 leukemia; format: in vivo, mouse (B6D2Fl); settings: for % T/C: 24 h after inoculation
Procedure: In Vivo Protocol. B6D2Fl mice (Charles River Laboratories, Wilmington, Mass., U.S.A.) were injected with […] L1210 leukemia cells via the intraperitoneal route. A single intraperitoneal treatment with ELs, CPT, L-CPT, ELs +CPT was administered 24 hours after tumor inoculation. Five animals were used in each group except for the control group which consisted of 7 untreated mice.
Statistical Considerations. Animal survival data was plotted using the method described by Kaplan and Meier (Kaplan and Meier, 1958):
Because LC-CPT appeared to have improved potency compared to free CPT and LC-CPT caused early death at the highest doses, mice inoculated with L1210 leukemia were treated with doses of 30 to 60 mg/kg free CPT or 10 to 20 mg/kg of LC-CPT (Table 6). […] One animal treated with 15 mg/kg free CPT plus lipid survived 50 days.

[6] = Organ distribution after i.v. administration; format: in vivo, mice
[7] = system: DIFI cells; experiment: MTT cytotoxicity, DIFI cells; format: cell-based, human
Procedure: as §1, §2, §3

[8] = system: KB cells; experiment: MTT cytotoxicity, KB cells; format: cell-based, human
Procedure: as §1, §2, §3

[9] = Lipids screened for complexation with CPT (fluorescent microscopy; % bound); format: physicochemical
From the text: In order to prepare LC-CPT (a liposomal preparation containing CPT within spherical lipid vesicles) various individual lipids were screened for complexation with CPT. […] CPT crystals and lipid/CPT complexes of >0.4 microns can be visualized under a fluorescent microscope (since CPT fluoresces due to its rigid ring structure). […] Therefore, the better a lipid complexes with CPT the less CPT crystals are formed, and the more lipid/CPT complexes are formed.
Drug/lipid Complex Preparation. CPT was mixed in ratios of from 2:1 to 25:1 w/w lipid:drug in chloroform-methanol (8:1). For studies where CPT was radiolabeled, approximately 0.02 uCi/ml [^3 H] CPT was added to the preparation. Trace quantities of ^14 C labeled cholesterol was added to samples requiring lipid labeling. For small samples, the lipids were dried in 12×75 mm culture tubes under a stream of nitrogen gas. For large samples, a rotavapor (Buchi RE140, Switzerland) was used to dry lipids in a 100 to 1000 ml round bottom flasks. […] For liposomal CPT 0.9% Nace was used. Preparations were screened for lipid entrapment by light and fluorescent microscopy (Nikon Labophot-2, Japan). […]
Lipids of varying carbon chain length, charge, and saturation, alone or in different combinations, were empirically screened for their ability to form liposomes incorporating CPT by fluorescent microscopy.

[10] = Lipid-binding efficiency by differential centrifugation; format: physicochemical
Procedure: Determination of Entrapment Efficiency.
A modification of the Ficoll flotation method for separating entrapped from free drug was used (Fraley et al.). […] samples were added to 12×75 mm culture tubes. One ml of 30% Ficoll was layered on the liposome preparation, then one ml of PBS was layered on top of the Ficoll. The tube was spun for 30 min at 3400 rpm in Sorvall GS2-B swing rotor. The percent entrapment was calculated with the formula: [formula]
(§4) These observation led the present inventors to other negatively charged lipids. […] Chromatographic evaluation of these preparations confirmed again that <5% of CPT eluted with the liposome fraction, the rest of the drug eluting later in a large number of consecutive fractions. By differential centrifugation, the lipid-binding efficiency of cardiolipin was about 67% and that of DO-NGPE 97%. DO-NGPE-CPT was, therefore, selected for further biological and pharmacological studies.

[11] = system: KB, MDA-Panc3, and DIFI cell lines; experiment: MTT cytotoxicity, KB, MDA-Panc3 and DIFI cell lines taken together; format: cell-based, human
Procedure: as §1, §2, §3

[12] = Chromatographic evaluation of CPT in the liposome fraction; format: physicochemical; settings: lipid used alone
Procedure: Chromatography. A 30 cm agarose 0.5M column is used to separate liposome-bound drug from free CPT. PBS is used as the mobile phase for all preparations. Twenty samples were collected in 3 mL aliquots for a total of 60 mLs. Fluorescence and scintigraphy were used to detect encapsulated and free drug. Fluorimetry. Aliquots of 20 μl from each collection tube were transferred to cuvets containing 2 ml methanol. Fluorimetry was performed as described by Hart et al. (Hart et al., 1969). Fluorescence was measured at an excitation wavelength of 370 nm and emission wavelength of 434 nm (Perkin-Elmer MPF44A, Norwalk, Conn., U.S.A.). Two ml of ethanol was used as a control for machine calibration.
Chromatographic evaluation confirmed that <5% of CPT was incorporated in the liposome fraction of the preparation, the rest presumably being solubilized or in small particles not detectable by fluorescence microscopy.
as §4

**Q.** Which “aqueous solubility (in words)” value [1] does the source give for CC[C@@]1(O)C(=O)OCc2c1cc1n(c2=O)Cc2cc3ccccc3nc2-1 [CPT, Camptothecin] here?
**A.** Its value is “poor aqueous solubility”.

**Q.** What about the “solubility in DMSO, Tween-20, cremophor, and methanol (in words)” value ([1]; CPT lactone) of the same compound?
**A.** The value was “crystallization and precipitation of drug occurs”.

**Q.** What about the “activity of closed-lactone form relative to sodium salt” value [2] of the same compound?
**A.** The value was 10 fold.

**Q.** And the “cytotoxicity (in words)” value [3]?
**A.** The value was “modestly sensitive; also recorded: significantly more toxic to cells at a concentration of 1 μmol compared to 0.1 μmol; also recorded: somewhat more sensitive to CPT at 24 h than DIFI cells”.

**Q.** What about the “long-term survivors, percent” value ([4]; IP, 20 mg/Kg) of the same compound?
**A.** Its value is 20%.

**Q.** What about the “long-term survivors, percent” value ([4]; IP, 40 mg/Kg) of the same compound?
**A.** The value was 60%.

**Q.** And the “treatment-related deaths / toxicity at 40 mg/kg” value ([4]; IP, 40 mg/kg CPT)?
**A.** Its value is “one treatment related death (day 8)”.

**Q.** What about the “antitumor activity, P388 (in words)” value ([4]; P388, IP) of the same compound?
**A.** The value was “No activity”.

**Q.** What about the 50-day survivors ([4]; P388, IP, 10 mg/kg CPT) of the same compound?
**A.** The 50-day survivors was “none”.

**Q.** What about the “% T/C” value ([4]; P388, IP, 10 mg/kg CPT) of the same compound?
**A.** The value was 121%.

**Q.** And the 50-day survivors ([4]; P388, IP, 20 mg/kg CPT)?
**A.** Its 50-day survivors is “none”.

**Q.** What about the “% T/C” value ([4]; P388, IP, 20 mg/kg CPT) of the same compound?
**A.** The value was 100%.

**Q.** What about the “50-day survivors / long-term survivors” value ([4]; P388, IP, 40 mg/kg CPT, 40 mg/kg) of the same compound?
**A.** Its value is 3 and 3/5.

**Q.** What about the “%T/C, similar antitumor activity compared” value ([4]; P388, IP, dose not given) of the same compound?
**A.** Its value is 207%.

**Q.** What about the “antitumor activity / survival, L1210 (in words)” value [5] of the same compound?
**A.** Its value is “inactive”.

**Q.** What about the 50-day survivors ([5]; 30 mg/kg CPT) of the same compound?
**A.** Its 50-day survivors is 0.

**Q.** And the “% T/C” value ([5]; 30 mg/kg CPT)?
**A.** Its value is 85%.

**Q.** What about the 50-day survivors ([5]; 45 mg/kg CPT) of the same compound?
**A.** The 50-day survivors was 0.

**Q.** What about the “% T/C” value ([5]; 45 mg/kg CPT) of the same compound?
**A.** Its value is 85%.

**Q.** And the 50-day survivors ([5]; 60 mg/kg CPT)?
**A.** The 50-day survivors was 0.

**Q.** And the “% T/C” value ([5]; 60 mg/kg CPT)?
**A.** Its value is 92%.

**Q.** And the “GI Tract level” value ([6]; 6 hrs, i.v. 10 mg/kg CPT)?
**A.** The value was 2.562 ± 0.515 μg/ml or μg/mg dry tissue.

**Q.** And the Heart level ([6]; 6 hrs, i.v. 10 mg/kg CPT)?
**A.** The Heart level was 1.458 ± 0.555 μg/ml or μg/mg dry tissue.

**Q.** What about the Kidney level ([6]; 6 hrs, i.v. 10 mg/kg CPT) of the same compound?
**A.** The Kidney level was 0.443 ± 0.164 μg/ml or μg/mg dry tissue.

**Q.** And the Liver level ([6]; 6 hrs, i.v. 10 mg/kg CPT)?
**A.** The Liver level was 2.077 ± 0.402 μg/ml or μg/mg dry tissue.

**Q.** And the Lung level ([6]; 6 hrs, i.v. 10 mg/kg CPT)?
**A.** Its Lung level is 38.217 ± 3.061 μg/ml or μg/mg dry tissue.

**Q.** And the “GI Tract level” value ([6]; 24 hrs, i.v. 10 mg/kg CPT)?
**A.** Its value is 0.492 ± 0.148 μg/ml or μg/mg dry tissue.

**Q.** What about the Heart level ([6]; 24 hrs, i.v. 10 mg/kg CPT) of the same compound?
**A.** Its Heart level is 0.228 ± 0.092 μg/ml or μg/mg dry tissue.

**Q.** What about the Kidney level ([6]; 24 hrs, i.v. 10 mg/kg CPT) of the same compound?
**A.** Its Kidney level is 0.539 ± 0.428 μg/ml or μg/mg dry tissue.

**Q.** And the Liver level ([6]; 24 hrs, i.v. 10 mg/kg CPT)?
**A.** Its Liver level is 0.429 ± 0.124 μg/ml or μg/mg dry tissue.

**Q.** What about the Lung level ([6]; 24 hrs, i.v. 10 mg/kg CPT) of the same compound?
**A.** The Lung level was 12.276 ± 5.363 μg/ml or μg/mg dry tissue.

**Q.** And the “drug level in the lungs, free CPT relative to LC-CPT” value ([6]; i.v.)?
**A.** Its value is “about 180 -fold”.

**Q.** And the “biodistribution / clearance (in words)” value ([6]; i.v., mice, listed as free CPT)?
**A.** Its value is “rapidly cleared from the blood; also recorded: Heart and kidney levels of free CPT were higher than those of LC-CPT”.

**Q.** What about the concentration at 6 h ([6]; mouse, in vivo, iv, 6 hrs, i.v. 10 mg/kg CPT, read-out: Blood level) of the same compound?
**A.** Its concentration at 6 h is 69 ± 39 ng/mL.

**Q.** What about the concentration at 24 h ([6]; mouse, in vivo, iv, 24 hrs, i.v. 10 mg/kg CPT, read-out: Blood level) of the same compound?
**A.** The concentration at 24 h was 8 ± 12 ng/mL.

**Q.** What about the “cytotoxicity (in words)” value ([7]; 24-120 h) of the same compound?
**A.** The value was “significantly more toxic to cells at a concentration of 1M compared to 0.1M”.

**Q.** And the cellular viability ([7]; 120 h)?
**A.** The cellular viability was “approximately 40%”.

**Q.** And the “cytotoxicity (in words)” value ([8]; 24 h)?
**A.** Its value is “somewhat more sensitive to CPT at 24 h than DIFI cells”.

**Q.** And the cellular viability ([8]; 120 h)?
**A.** Its cellular viability is “approximately 40%”.

**Q.** With CCCCCCCC/C=C\CCCCCCCC(=O)OCC(COP(=O)(O)OCCNC(=O)CCCC(=O)O)OC(=O)CCCCCCC/C=C\CCCCCCCC (centres unmarked) [Dioleoyl-NGPE, dioleoyl-N-glutaryl-phosphatidyl ethanolamine] as the compound, how does the Crystals ([9]; Table 1, lipid alone with CPT, fluorescent microscopy) read?
**A.** The Crystals was “no”.

**Q.** And the “interaction with CPT (in words)” value ([9]; listed as DO-NGPE)?
**A.** The value was “homogeneous and milky preparations devoid of drug crystals; also recorded: most favorable interaction”.

**Q.** And the lipid-binding efficiency [10]?
**A.** Its lipid-binding efficiency is 97%.

**Q.** What about the “antitumor activity in vitro (in words)” value [11] of the same compound?
**A.** The value was “does not appear to have any intrinsic antitumor activity and does not inhibit the effects of CPT”.

**Q.** And the “CPT incorporated in / eluted with the liposome fraction” value [12]?
**A.** Its value is less than 5%.
